According to patent publication EP0386258A1, “TETRAHYDROPYRIDINE DERIVATIVES” (Asahi Kasei Kabushiki Kaisha, priority 1988, dated 1990):
Counter-ions that a name gives are not always drawn.

How the values were obtained:
[1] = test system: akinesia of mice during forced swimming; experiment: mill wheel test (forced swimming), psychoanaleptic activity; type: in vivo
Experimental: This test was conducted in the following manner according to a method described in S. Nomura et al., Eur. J. Pharmacol., 83, 171 - 175 (1982).
Activities of each drug on the akinesia of mice during forced swimming were examined by a mill wheel test. Now the meaning of this test will be described. The akinesia observed during forced swimming of mice may be regarded as emotional disturbance since the animals resign escaping from the narrow environment (device) as the result of learning. It has been known that this akinesia can be shortened by drugs having psychoanaleptic effects such as antidepressants or MAO inhibitors. Namely, each drug was orally administered to a mouse. 40 minutes after the administration, the mouse was introduced into a water tank provided with a mill wheel and contained water at 25 °C. Then, the number of rotations of the wheel was counted throughout the observation period (6 minutes). However, P-CC2 was subcutaneously administered to avoid decomposition in digestive organ and the examination was conducted for 15 minutes thereafter (see Margaret M. Schweri, Joseph V. Martin, Wallace B. Mendelson, James E. Barrett, Steven M. Paul and Phil Skolnick, Life Science, 1505-1510, 33 (1983) and P. Skolnick, M. M. Schweri, S. M. Paul, J. V. Martin and W. B. Mendelson, Life Science, 2439-2445, 32 (1983)).

male Wister rats [2] = experiment: water lick conflict test, learning improvement activity (latent time); type: in vivo; conditions: time until first drinking water, average of no-drug rats defined as 100 (n = 5)
Source text: (§1) The antianxiety activity and learning improvement activity of the compounds of the present invention were examined by using male Wister rats aged 6 weeks by a water lick conflict test by reference to a method described by Vogel J. R., Beer B. and Clody D. E. described in Psvcho^pharmacolo^qia, 1 - 7, 21 (1971).
(§2) In this test, rats having abstained from water were used and an electric shock was applied to the animals every time they drank water to bring the rats into an anxious state. Thus the activity of medicaments to the rats were determined.
This test was conducted simultaneously with the measurement of the antianxiety activity (2) and aims at measuring the latent time when the rats abstinence from water first began to drink water.
A longer latent time means the higher learning improvement activity.

male Wister rats [3] = experiment: water lick conflict test, antianxiety activity (shocked number); type: in vivo; conditions: electric shocks within 5 minutes, no-drug rat defined as 100 (n = 5)
Source text: as §1, §2
Rats, having abstained from water for 24 hours prior to the test, were allowed to access to water. After 4 to 5 hours, a drug was administered to the animals. After a definite treatment period, the test was initiated. The shocked number means the number of electric shocks applied to the rats within 5 minutes after initially allowing them to access to water. […] That is, an increase in the shocked number means that the antianxiety activity is increased.

Wistar rats = experiment: subacute toxicity, oral administration for 35 days; conditions: rat, in vivo
Experimental: (§3) Subacute toxicities of N-(2-aminoethyl)benzo[b]thieno-[2,3-c]pyridine-3-carboamide (A-6) and N-cyclohexyl-1,2,3,4-tetrahydrobenzo[b]thieno[2,3-c]pyridine-3-carboamide (A-9) were tested by orally administering these compounds to Wistar rats for 35 days. The test was conducted in the following manner.
(§4) Each compound was compulsory orally administered to Wistar SPF rats once a day between 9.00 a.m. to 11:30 a.m. by using a 2 ml or 5 ml disposable syringe and a rat gastric sound for 35 days continuously. Syringes were exchanged for each dose and for each compound. The administration period was determined by referring the initial day of the administration as to 0 day.

[4] = subacute toxicity, oral administration for 35 days; conditions: rat, in vivo
Experimental: as §3, §4

[5] = 60 mg/kg orally, 40 minutes after administration, observation period 6 minutes, water at 25 °C

| Structure (SMILES) | Numbers of Rotations of Wheel [1, 5] | Latent Time (male Wister rats [2]; 40 mg/kg P.O.) | Shocked Number (male Wister rats [3]; 40 mg/kg P.O.) | other results |
| --- | --- | --- | --- | --- |
| CCNC(=O)C1Cc2c(sc3ccccc23)CN1 (centres unmarked) [Compound A-7, N-ethyl-1,2,3,4-tetrahydrobenzo[b]thieno(2,3-c]pyridine-3-carboamide] | 19.3±8.1 | 232±34.7 | 127.1±31.5 |  |
| O=C(NC1CCCCC1)C1Cc2c(sc3ccccc23)CN1 (centres unmarked) [Compound A-9, N-cyclohexyl-1,2,3,4-tetrahydrobenzo[b]thieno-[2,3-c]pyridine-3-carboamide hydrochloride] | 37.1±8.0 |  |  | Latent Time (male Wister rats [2]; 30 mg/kg P.O.): 350±32; Toxic (lethal) Dose (Wistar rats): 800 mg/kg; NOAEL at 840 h ([4]; Safe Dose): 200 mg/kg; NOAEL at 840 h ([4]; Subeffective Dose): 50 mg/kg; Shocked Number (male Wister rats [3]; 30 mg/kg P.O.): 389±41 |
| NCCNC(=O)c1cc2c(cn1)sc1ccccc12 [Compound A-6, N-(2-aminoethyl)benzo[b]thieno[2,3-c]pyridine-3-carboamide] | 25.4±9.1 |  |  | Toxic (lethal) Dose (Wistar rats): 200 mg/kg; NOAEL at 840 h ([4]; Safe Dose): 50 mg/kg; NOAEL at 840 h ([4]; Subeffective Dose): 50 mg/kg |
| O=C(c1cc2c(cn1)sc1ccccc12)N1CCCNCC1 [Compound A-3, hexahydro-l-(benzo[b]-thieno[2,3-c]pyridine-3-carbonyl)-lH-1,4-diazepine] | 22.4±6.7 |  |  |  |
| CCOC(=O)C1Cc2c(sc3ccccc23)CN1 (centres unmarked) [Compound A-2, l,2,3,4-tetrahydrobenzo[b]thieno[2,3-c]pyridine-3-carboxylic acid ethyl ester] | 26.5±2.9 |  |  |  |
| Clc1ccc2sc3c(c2c1)CCNC3 [Compound C-1, 6-chloro-1,2,3,4-tetrahydrobenzo[b]-thieno[2,3-c]pyridine] | 24.3±4.3 | 128±19.6 | 104.3±28.6 |  |
| CCOC(=O)c1cc2c(cn1)sc1ccccc12 [Compound A-1, benzo[b]thieno[2,3-c]pyridine-3-carboxylic acid ethyl ester] | 23.4±6.8 | 132±29.9 | 117.1±25.7 |  |
| O=C(c1cc2c(cn1)sc1ccccc12)N1CCCCC1 [Compound A-4, 1-(benzo[b]thieno[2,3-c]pyridine-3-carbonyl)piperidine] | 24.7±3.9 |  |  |  |
| CCCCCCNC(=O)C1Cc2c(sc3ccccc23)CN1 (centres unmarked) [Compound A-8, N-hexyl-1,2,3,4-tetrahydrobenzo[b]-thieno[2,3-c]pyridine-3-carboamide] | 20.9±7.6 | 249±36.6 | 111.8±28.6 |  |
| O=C(c1cc2c(cn1)sc1ccccc12)N1CCOCC1 [Compound A-5, 4-(benzo[b]thieno[2,3-c]pyridine-3-carbonyl)morpholine] | 21.3±4.0 |  |  |  |
| CCOC(=O)c1cc2c(cn1)[nH]c1ccccc12 [β-CCE, β-carboline-3-carboxylic acid ethyl ester] |  | 312±38.2 | 82.9±20.0 | Numbers of Rotations of Wheel ([1]; 10 mg/kg subcutaneously, examination 15 minutes thereafter): 23.6±4.1 |
